{
  "source": "ChEMBL document CHEMBL4428075",
  "about": "“New antiproliferative 7-(4-(N-substituted carbamoylmethyl)piperazin-1-yl) derivatives of ciprofloxacin induce cell cycle arrest at G2/M phase” (Bioorg Med Chem, 2016)",
  "key": {"WI-38 [1]": {"tested_on": "WI-38", "test": "Downregulation of cdc2 expression in human WI38 cells at 5 to 25 uM after 24 hrs by Western blot analysis", "assay_type": "ADME, cell-based", "conditions": "wi-38, 24 h"}, "A549 [2]": {"tested_on": "A549", "test": "Induction of cell cycle arrest in human A549 cells assessed as accumulation at G2/M phase after 24 hrs by FITC-labeled FACS calibur flow cytometric analysis", "assay_type": "functional, cell-based"}, "A549 [3]": {"tested_on": "A549", "test": "Induction of cell cycle arrest in human A549 cells assessed as accumulation at G2/M phase at 5 uM after 24 hrs by FITC-labeled anti-BrdU antibody/7AAD staining based FACS calibur flow cytometric analysis (reference value: 12.61 %)", "assay_type": "functional"}, "A549 [4]": {"tested_on": "A549", "test": "Induction of cell cycle arrest in human A549 cells assessed as accumulation at sub G1 phase at 5 uM after 24 hrs by FITC-labeled anti-BrdU antibody/7AAD staining based FACS calibur flow cytometric analysis (reference value: 0.82 %)", "assay_type": "functional"}, "A549 [5]": {"tested_on": "A549", "test": "Induction of cell cycle arrest in human A549 cells assessed as accumulation at G2/M phase at 10 uM after 24 hrs by FITC-labeled anti-BrdU antibody/7AAD staining based FACS calibur flow cytometric analysis (reference value: 12.61 %)", "assay_type": "functional"}, "A549 [6]": {"tested_on": "A549", "test": "Induction of cell cycle arrest in human A549 cells assessed as accumulation at S phase at 10 uM after 24 hrs by FITC-labeled anti-BrdU antibody/7AAD staining based FACS calibur flow cytometric analysis (reference value: 20.9 %)", "assay_type": "functional"}, "A549 [7]": {"tested_on": "A549", "test": "Induction of cell cycle arrest in human A549 cells assessed as accumulation at G2/M phase at 15 uM after 24 hrs by FITC-labeled anti-BrdU antibody/7AAD staining based FACS calibur flow cytometric analysis (reference value: 12.61 %)", "assay_type": "functional"}, "A549 [8]": {"tested_on": "A549", "test": "Induction of cell cycle arrest in human A549 cells assessed as accumulation at S phase at 15 uM after 24 hrs by FITC-labeled anti-BrdU antibody/7AAD staining based FACS calibur flow cytometric analysis (reference value: 20.9 %)", "assay_type": "functional"}, "A549 [9]": {"tested_on": "A549", "test": "Induction of cell cycle arrest in human A549 cells assessed as accumulation at G2/M phase at 25 uM after 24 hrs by FITC-labeled anti-BrdU antibody/7AAD staining based FACS calibur flow cytometric analysis (reference value: 12.61 %)", "assay_type": "functional"}, "A549 [10]": {"tested_on": "A549", "test": "Induction of cell cycle arrest in human A549 cells assessed as accumulation at sub G1 phase at 25 uM after 24 hrs by FITC-labeled anti-BrdU antibody/7AAD staining based FACS calibur flow cytometric analysis (reference value: 0.82 %)", "assay_type": "functional"}, "A549 [11]": {"tested_on": "A549", "test": "Upregulation of p53 expression in human A549 cells after 24 hrs by Western blot analysis", "assay_type": "functional, cell-based"}, "A549 [12]": {"tested_on": "A549", "test": "Upregulation of p21 expression in human A549 cells after 24 hrs by Western blot analysis", "assay_type": "functional, cell-based"}, "WI-38 [13]": {"tested_on": "WI-38", "test": "Upregulation of p53 expression human WI38 cells at 5 to 25 uM after 24 hrs by Western blot analysis", "assay_type": "ADME, cell-based", "conditions": "wi-38, 24 h"}, "WI-38 [14]": {"tested_on": "WI-38", "test": "Upregulation of p21 expression in human WI38 cells at 5 to 25 uM after 24 hrs by Western blot analysis", "assay_type": "ADME, cell-based", "conditions": "wi-38, 24 h"}, "WI-38 [15]": {"tested_on": "WI-38", "test": "Downregulation of cyclinB1 expression in human WI38 cells at 5 to 25 uM after 24 hrs by Western blot analysis", "assay_type": "ADME, cell-based", "conditions": "wi-38, 24 h"}, "A549 [16]": {"tested_on": "A549", "test": "Induction of p53 expression in human A549 cells at 25 uM after 24 hrs in presence of PFTalpha by Western blot analysis", "assay_type": "functional, cell-based"}},
  "note": "Activity calls are given as the source filed them. The rule behind the calls is not given here.",
  "data": [
    {"compound": "O=C(CN1CCN(c2cc3c(cc2F)c(=O)c(C(=O)O)cn3C2CC2)CC1)Nc1ccc(Cl)cc1", "values": [
      {"measurement": "Activity", "setting": "WI-38 [1]", "result": "Non-Toxic"},
      {"measurement": "Activity", "setting": "A549 [2]", "result": "Dose-dependent effect"},
      {"measurement": "Activity", "setting": "A549 [3]", "result": 13.21, "unit": "%"},
      {"measurement": "Activity", "setting": "A549 [4]", "result": 1.65, "unit": "%"},
      {"measurement": "Activity", "setting": "A549 [5]", "result": 22.6, "unit": "%"},
      {"measurement": "Activity", "setting": "A549 [6]", "result": 16.7, "unit": "%"},
      {"measurement": "Activity", "setting": "A549 [7]", "result": 32.6, "unit": "%"},
      {"measurement": "Activity", "setting": "A549 [8]", "result": 19.8, "unit": "%"},
      {"measurement": "Activity", "setting": "A549 [9]", "result": 64, "unit": "%"},
      {"measurement": "Activity", "setting": "A549 [10]", "result": 2.6, "unit": "%"},
      {"measurement": "Activity", "setting": "A549 [11]", "result": "Dose-dependent effect"},
      {"measurement": "Activity", "setting": "A549 [12]", "result": "Dose-dependent effect"},
      {"measurement": "Activity", "setting": "WI-38 [13]", "result": "Non-Toxic"},
      {"measurement": "Activity", "setting": "WI-38 [14]", "result": "Non-Toxic"},
      {"measurement": "Activity", "setting": "WI-38 [15]", "result": "Non-Toxic"},
      {"measurement": "Activity", "setting": "A549 [16]", "result": "inactive"}
    ]}
  ]
}
